# Where “and” joins values, the source holds several entries; their conditions need not be identical. Equal entries are not always repeated.
# System: advanced solid tumors, adenoid cystic carcinoma (ACC)
# Experiment: Antitumor efficacy and survival (RECIST v1.1 response, CBR, PFS, OS)
# Type: in vivo, human
# Description: The study enrolled adults with histologically confirmed, locally advanced and/or metastatic solid tumors who had progressed on at least one line of prior systemic therapy (except for ACC) and relapsed/refractory T-ALL/LBL for whom no standard therapy was available. In dose escalation, participants with solid tumors with known or frequent Notch pathway–activating mutations were eligible (breast cancer, gastrointestinal tumors, hepatocellular carcinoma, osteosarcoma, malignant glomus tumor, and ACC), while the confirmatory cohort planned to enroll participants with selected tumor types (including T-ALL/LBL) and confirmed Notch pathway activation. Key eligibility criteria included patients ≥18 years of age with evaluable disease, Eastern Cooperative Oncology Group (ECOG) performance status 0–1, able to swallow capsules, and adequate organ function. Participants were excluded if they had clinically significant cardiac disease or thromboembolic events within the preceding 6 months, and drugs prolonging the QTc were avoided. A complete list of eligibility criteria is outlined in the Supplementary Materials and Methods.
# Safety was assessed via monitoring of DLTs during the first treatment cycle, and of AEs, physical exam, and clinical lab results (hematology, coagulation, blood chemistry, urinalysis, and cardiac markers) throughout the study (Supplementary Table S1). 12-lead electrocardiograms and Holter safety monitoring with periodic cardiac imaging was employed. Efficacy assessments used RECIST v1.1 applied to CT/MRI scans performed at screening and every 8 weeks; or evaluated complete remission with complete hematologic recovery by National Comprehensive Cancer Network guideline criteria for T-ALL/T-LBL. Adherence to study drug administration was evaluated using both patient diaries and capsule counts.
# The primary endpoint for dose escalation was the number of patients experiencing DLT during the first 28-day cycle of CB-103 and for the confirmatory phase, the incidence rate, severity, and relationship of AEs to CB-103. Secondary endpoints included assessment of clinical benefit rate [CBR; defined as achieving complete and/or partial response and/or stable disease (SD) at prespecified benchmarks], duration of response, progression-free survival (PFS) and overall survival (OS), and plasma pharmacokinetics.
# The objective of the BLRM design ([10]) was to determine the MTD defined as the highest dose with less than 25% risk of the true DLT rate being above 33%. The MTD was considered reached if one of the following criteria was fulfilled: (i) if the posterior probability of the true DLT rate in the target interval (16%–33%) of the MTD was >50%, and (ii) at least 6 patients were treated at the MTD. Under this model, and accounting for dropouts and some additional patients enrolled to each cohort, approximately 55 patients were anticipated to enroll in dose escalation and approximately 45 patients in the confirmatory phase. Data were reported using 95% confidence intervals (CI) and survival endpoints (PFS, OS) are reported from the time of first treatment to the first of progression or death summarized by Kaplan–Meier estimates. All statistical analyses were analyzed using SAS v9.4 software.
# [1] = ACC confirmatory cohort (n = 12), 500 mg once daily
# [2] = All solid tumor patients (n = 76)
compound,measurement,setting,value
CC(C)(C)c1ccc(Oc2ccc(N)cn2)cc1 [CB-103],3-month PFS (95% CI),[1],10.9 (0.6–38.0)
same,Best overall response: Complete response,[1],"0 n, %"
same,Best overall response: Partial response,[1],"0 n, %"
same,Best overall response: Progressive disease,[1],"7 (58) n, %"
same,Best overall response: Stable disease,[1],"3 (25) n, %"
same,Best overall response: Unevaluable,[1],"2 (17) n, %"
same,"Clinical benefit rate, 3 months (95% CI)",[1],25.0 (5.5–57.2) — — %
same,Median OS (95% CI),[1],5.4 (1.3–5.4) months
same,Median PFS (95% CI),[1],1.4 (0.8–2.3) months
same,Overall survival: No. of deaths,[1],"4 (33) n, %"
same,Progression-free survival: No. of events,[1],"10 (83) n, %"
same,3-month PFS (95% CI),All patients with ACC (n = 40),46.8 (30.4–61.7)
same,6-month OS (95% CI),All patients with ACC (n = 40),72.4 (53.1–84.8) %
same,6-month PFS (95% CI),All patients with ACC (n = 40),18.6 (7.9–32.8) %
same,9-month PFS (95% CI),All patients with ACC (n = 40),6.2 (1.1–17.8)
same,12-month OS (95% CI),All patients with ACC (n = 40),57.3 (37.5–73.0) %
same,12-month PFS (95% CI),All patients with ACC (n = 40),6.2 (1.1–17.8)
same,Best overall response: Complete response,All patients with ACC (n = 40),"0 n, %"
same,Best overall response: Partial response,All patients with ACC (n = 40),"0 n, %"
same,Best overall response: Progressive disease,All patients with ACC (n = 40),"13 (33) n, %"
same,Best overall response: Stable disease,All patients with ACC (n = 40),"23 n, % and 23 (58%) n, % and 23 (58) n, %"
same,Best overall response: Unevaluable,All patients with ACC (n = 40),"4 (10) n, %"
same,"Clinical benefit rate, 3 months (95% CI)",All patients with ACC (n = 40),57.5 (40.9–73.0) %
same,"Clinical benefit rate, 6 months (95% CI)",All patients with ACC (n = 40),27.5 (14.6–43.9) %
same,"Clinical benefit rate, 9 months (95% CI)",All patients with ACC (n = 40),2.5 (0.1–13.2) %
same,Median OS (95% CI),All patients with ACC (n = 40),18.4 months
same,Median PFS (95% CI),All patients with ACC (n = 40),2.5 (1.5–3.7) months
same,Overall survival: No. of deaths,All patients with ACC (n = 40),"15 (38) n, %"
same,Progression-free survival: No. of events,All patients with ACC (n = 40),"35 (88) n, %"
same,3-month PFS (95% CI),[2],38.7 (26.5–50.6)
same,6-month OS (95% CI),[2],68.4 (54.4–78.9) %
same,6-month PFS (95% CI),[2],15.5 (7.5–26.0) %
same,9-month PFS (95% CI),[2],5.8 (1.7–14.3)
same,12-month OS (95% CI),[2],41.6 (28.0–54.7) %
same,12-month PFS (95% CI),[2],3.9 (0.7–11.6)
same,Best overall response: Complete response,[2],"0 n, %"
same,Best overall response: Partial response,[2],"0 n, %"
same,Best overall response: Progressive disease,[2],"29 (38) n, %"
same,Best overall response: Stable disease,[2],"37 (49%) n, % and 37 (49) n, %"
same,Best overall response: Unevaluable,[2],"10 (13) n, %"
same,"Clinical benefit rate, 3 months (95% CI)",[2],48.7 (37.0–60.4) %
same,"Clinical benefit rate, 6 months (95% CI)",[2],15.8 (8.4–26.0) %
same,"Clinical benefit rate, 9 months (95% CI)",[2],1.3 (0.0–7.1) %
same,Median OS (95% CI),[2],9.2 (6.3–18.4) months
same,Median PFS (95% CI),[2],1.9 (1.4–3.2) months
same,Overall survival: No. of deaths,[2],"33 (43%) n, % and 33 (43) n, %"
same,Progression-free survival: No. of events,[2],"59 (78) n, %"
same,Objective responses,all 76 solid tumor patients,no objective responses
same,Duration of stable disease on study,"case: locoregionally recurrent ACC, NOTCH-activating mutation present",3 months
same,Tumor regression in right parapharyngeal mass,"case: locoregionally recurrent ACC, NOTCH-activating mutation present (30 to 25 mm)",−17%
same,Tumor regression in dominant liver lesion,case: patient with metastatic ACC with rapid progression prior to study entry (26.1–19.4 mm),−25.7%
same,Duration of stable disease on study,"case: patient with metastatic ACC, dominant liver lesion",8 months
same,Median OS,heavily pretreated ACC cohort,under 2 years
same,Duration of SD,"one patient, NOTCH1-activated metastatic ACC with tumor BCL2 overexpression, 250 mg twice daily",3 months
same,ACC patients exhibiting SD,patients with ACC (n = 40),58%

# Reference: publication PMC10501326, “A Phase I Study of the Pan-Notch Inhibitor CB-103 for Patients with Advanced Adenoid Cystic Carcinoma and Other Tumors” (Cancer Research Communications, 2023)
